Measurements: patent US12709622B2, “Conjugates for selective responsiveness to vicinal diols” (PROTOMER TECHNOLOGIES, INC., priority 2020, dated 2026)

Legend:
Conditions in all cases: for Kd: ARS displacement, 0.1M phosphate buffer, pH 7.4, 25° C.
[1] = Alizarin Red S (ARS) displacement assay, binding to glucose
Experimental: (§1) The association constant for the binding event between Alizarin Red S (ARS) and the compounds of each of examples 1-24 was determined using standard methods in the art. Triplicate titrations of 10^-5 M ARS in 0.1M phosphate buffer, pH 7.4, were performed in a 96-well plate against serial dilutions of example compounds, ranging in concentration from 0-0.1M at 25° C. The example compound-ARS solution was incubated for 5-45 minutes at 25° C., and absorbance intensity was measured using excitation wavelength 468 nm and emission wavelength 585 nm. Changes in intensity were plotted against the concentration of the example compound, and the intensity data was fitted to yield an association constant for ARS binding.
(§2) The association constant for the binding between a target sugar compound (e.g., glucose) and a boronate compound was determined via the displacement of ARS bound to the example compounds. Triplicate wells of 10^-5 M ARS and 0.1M example compounds in 0.1M phosphate buffer, pH 7.4, were titrated in a 96-well plate against serial dilutions of the target sugar compound, ranging in concentration from 0-2.0 M at 25° C. The boronate-ARS-carbohydrate solution was incubated for 30-60 minutes at 25° C. and the intensity of each well was measured in a plate reader at excitation wavelength 468 nm and emission wavelength 585 nm. Changes in intensity were plotted against concentration of the target sugar compound, and the data was fitted to a one-site competition equation:
(§3) [formula] to yield an association constant for the boronate compound-target sugar compound binding event.

[2] = Alizarin Red S (ARS) displacement assay, binding to fructose
Experimental: as §1, §2, §3

[3] = Alizarin Red S (ARS) displacement assay, binding to lactate
Experimental: as §1, §2, §3

[4] = Example 7 (heterobifunctional, boroxole) compared to Example 5

Structure (SMILES)	Kd [1]	Kd [2]	increase in affinity to glucose [1, 4]	Kd [3]	increase in affinity to lactate [3, 4]	increase in affinity to fructose [2, 4]
NC(=O)[C@H](CNC(=O)c1cc(B(O)O)ccc1[N+](=O)[O-])NC(=O)c1cc(B(O)O)ccc1[N+](=O)[O-] [Example 5, (S)-(3-((1-amino-3-(5-borono-2-nitrobenzamido)-1-oxopropan-2-yl)carbamoyl)-4-nitrophenyl)boronic acid]	29.4 mM	11 mM				
O=C(O)CN(CCCCNC(=O)c1cc(B(O)O)cc([N+](=O)[O-])c1)C(=O)c1cc(B(O)O)cc([N+](=O)[O-])c1 [Example 10, N-(4-(3-borono-5-nitrobenzamido)butyl)-N-(3-borono-5-nitrobenzoyl)glycine]	99.8 mM	11.5 mM				
O=C(O)CN(Cc1cccc(CNC(=O)c2ccc(B(O)O)c(F)c2)c1)C(=O)c1ccc(B(O)O)c(F)c1 [Example 22, N-(3-((4-borono-3-fluorobenzamido)methyl)benzyl)-N-(4-borono-3-fluorobenzoyl)glycine]	16.1 mM	9.52 mM		97.3 mM		
O=C(O)CN(C(=O)c1ccc(F)c(B(O)O)c1)[C@H]1CCCC[C@H]1NC(=O)c1ccc(F)c(B(O)O)c1 [Example 18, N-((1S,2R)-2-(3-borono-4-fluorobenzamido)cyclohexyl)-N-(3-borono-4-fluorobenzoyl)glycine]	95.4 mM	6.04 mM		67.5 mM		
O=C(O)CN(Cc1ccc(CNC(=O)c2cc(B(O)O)cc([N+](=O)[O-])c2)cc1)C(=O)c1cc(B(O)O)cc([N+](=O)[O-])c1 [Example 12, N-(4-((3-borono-5-nitrobenzamido)methyl)benzyl)-N-(3-borono-5-nitrobenzoyl)glycine]		12.1 mM				
O=C(O)CN(CCCNC(=O)c1cc(B(O)O)cc([N+](=O)[O-])c1)C(=O)c1cc(B(O)O)cc([N+](=O)[O-])c1 [Example 9, N-(3-(3-borono-5-nitrobenzamido)propyl)-N-(3-borono-5-nitrobenzoyl)glycine]	6.5 mM	10.6 mM				
O=C(O)CN(Cc1ccc(CNC(=O)c2ccc(B(O)O)c(F)c2)cc1)C(=O)c1ccc(B(O)O)c(F)c1 [Example 21, N-(4-((4-borono-3-fluorobenzamido)methyl)benzyl)-N-(4-borono-3-fluorobenzoyl)glycine]		13.5 mM				
O=C(O)CN(Cc1cccc(CNC(=O)c2ccc(F)c(B(O)O)c2)c1)C(=O)c1ccc(F)c(B(O)O)c1 [Example 17, N-(3-((3-borono-4-fluorobenzamido)methyl)benzyl)-N-(3-borono-4-fluorobenzoyl)glycine]	88.6 mM	6.5 mM		53.5 mM		
O=C(O)CN(Cc1cccc(CNC(=O)c2cc(B(O)O)cc([N+](=O)[O-])c2)c1)C(=O)c1cc(B(O)O)cc([N+](=O)[O-])c1 [Example 13, N-(3-((3-borono-5-nitrobenzamido)methyl)benzyl)-N-(3-borono-5-nitrobenzoyl)glycine]		17.8 mM				
O=C(O)CN(CCCCCNC(=O)c1cc(B(O)O)cc([N+](=O)[O-])c1)C(=O)c1cc(B(O)O)cc([N+](=O)[O-])c1 [Example 11, N-(5-(3-borono-5-nitrobenzamido)pentyl)-N-(3-borono-5-nitrobenzoyl)glycine]		24.7 mM				
O=C(O)CN(Cc1cccc(CNC(=O)c2cc(Br)cc(B(O)O)c2)c1)C(=O)c1cc(Br)cc(B(O)O)c1 [Example 24, N-(3-((3-borono-5-bromobenzamido)methyl)benzyl)-N-(3-borono-5-bromobenzoyl)glycine]	93.7 mM	9.36 mM				

Continued, values first:

Kd [1]	Kd [2]	increase in affinity to glucose [1, 4]	Kd [3]	increase in affinity to lactate [3, 4]	increase in affinity to fructose [2, 4]	Structure (SMILES)
4.4 mM	1.2 mM	~7 fold	39.5 mM	~7 fold	~7 fold	NC(=O)[C@H](CNC(=O)c1ccc2c(c1)B(O)OC2)NC(=O)c1cc(B(O)O)ccc1[N+](=O)[O-] [Example 7, (S)-(3-((1-amino-3-(J-hydroxy-1,3-dihydrobenzo[c][1,2]oxaborole-6-carboxamido)-1-oxopropan-2-yl)carbamoyl)-4-nitrophenyl)boronic acid]
14 mM	1.9 mM		48 mM			O=C(O)CNC(=O)[C@@H]1C[C@H](NC(=O)c2ccc3c(c2)B(O)OC3)CN1C(=O)c1cc(B(O)O)ccc1[N+](=O)[O-] [Example 3, ((2S,4S)-1-(5-borono-2-nitrobenzoyl)-4-(1-hydroxy-1,3-dihydrobenzo[c][1,2]oxaborole-6-carboxamido)pyrrolidine-2-carbonyl)glycine]
43 mM	2.87 mM		31 mM			O=C(O)CN(CCCNC(=O)c1ccc(B(O)O)c(F)c1)C(=O)c1ccc(B(O)O)c(F)c1 [Example 19, N-(3-(4-borono-3-fluorobenzamido)propyl)-N-(4-borono-3-fluorobenzoyl)glycine]
30.4 mM	5.86 mM		70.3 mM			O=C(O)CN(CCCCCNC(=O)c1ccc(B(O)O)c(F)c1)C(=O)c1ccc(B(O)O)c(F)c1 [Example 20, N-(S-(4-borono-3-fluorobenzamido)pentyl)-N-(4-borono-3-fluorobenzoyl)glycine]
3.4 mM	4.6 mM		74.1 mM			NC(=O)[C@H](CNC(=O)c1cc2c(c(C(F)(F)F)c1)COB2O)NC(=O)c1cc(B(O)O)cc([N+](=O)[O-])c1 [Example 6, (S)-(3-((1-amino-3-(1-hydroxy-4-(trifluoromethyl)-1,3-dihydrobenzo[c][1,2]oxaborole-6-carboxamido)-1-oxopropan-2-yl)carbamoyl)-5-nitrophenyl)boronic acid]
25.2 mM	1.7 mM		38.3 mM			CS(=O)(=O)c1ccc(B(O)O)cc1C(=O)N[C@@H]1C[C@H](C(N)=O)N(C(=O)c2cc(B(O)O)ccc2S(C)(=O)=O)C1 [Example 1, (3-((2R,4R)-4-(5-borono-2-(methylsulfonyl)benzamido)-2-carbamoylpyrrolidine-1-carbonyl)-4-(methylsulfonyl)phenyl)boronic acid]
1.64 mM	5.88 mM		59.8 mM			NC(=O)CN(C(=O)c1ccc2c(c1)B(O)OC2)[C@@H]1CCCC[C@H]1NC(=O)c1ccc2c(c1)B(O)OC2 [Example 14, N-(2-amino-2-oxoethyl)-1-hydroxy-N-((1R,2R)-2-(1-hydroxy-1,3-dihydrobenzo[c][1,2]oxaborole-6-carboxamido)cyclohexyl)-1,3-dihydrobenzo[c][1,2]oxaborole-6-carboxamide]
13 mM	5.6 mM					NC(=O)[C@H](CNC(=O)c1ccc2c(c1)B(O)OC2)NC(=O)c1cc(B(O)O)cc([N+](=O)[O-])c1 [Example 4, (S)-(3-((1-amino-3-(1-hydroxy-1,3-dihydrobenzo[c][1,2]oxaborole-6-carboxamido)-1-oxopropan-2-yl)carbamoyl)-5-nitrophenyl)boronic acid]
59 mM	4.8 mM		51.6 mM			O=C(O)CN(CCCNC(=O)c1ccc(F)c(B(O)O)c1)C(=O)c1ccc(F)c(B(O)O)c1 [Example 15, N-(3-(3-borono-4-fluorobenzamido)propyl)-N-(3-borono-4-fluorobenzoyl)glycine]
3.7 mM	2 mM		58 mM			O=C(O)CNC(=O)[C@@H]1C[C@H](NC(=O)c2ccc3c(c2)B(O)OC3)CN1C(=O)c1ccc2c(c1)B(O)OC2 [Example 2, ((2S,4S)-1-(1-hydroxy-1,3-dihydrobenzo[c][1,2]oxaborole-6-carbonyl)-4-(1-hydroxy-1,3-dihydrobenzo[c][1,2]oxaborole-6-carboxamido)pyrrolidine-2-carbonyl)glycine]
32 mM	2.2 mM					NC(=O)[C@H](CNC(=O)c1sccc1B(O)O)NC(=O)c1sccc1B(O)O [Example 8, (S)-(2-((1-amino-3-(3-boronothiophene-2-carboxamido)-1-oxopropan-2-yl)carbamoyl)thiophen-3-yl)boronic acid]
